Experimental data reported in patent publication US10479780B2, “Aminopyrazole derivatives” (Chugai Seiyaku Kabushiki Kaisha, priority 2015, dated 2019).

Tests used:
Type in all cases: biochemical
human Src enzyme = target: T1, human Src enzyme (Homo sapiens, UniProt P12931); test: Src enzyme inhibitory activity (time-resolved fluorometry, biotinylated peptide phosphorylation); conditions: biotinylated peptide phosphorylation, read-out: SRC_IC50
T1 construct: purchased Carna Biosciences, Inc. 08-173
Method: (§1) 2. Src Enzyme Inhibitory Activity Src inhibitory activity was determined based on activity of inhibiting phosphorylation reaction of a biotinylated peptide (EGPWLEEEEEAYGWMDF) using a human Src enzyme (manufactured by Carna Biosciences, Inc., cat 08-173). The phosphorylated biotinylated peptide was detected by time-resolved fluorometry using an anti-phosphorylated tyrosine antibody conjugated to europium cryptate, and streptavidin conjugated to XL665, an allophycocyanin derivative. The 50% inhibitory concentration (IC50) was calculated from the inhibition rate relative to the control group without containing the test substance.

human Yes1 enzyme = target: T2, human Yes1 enzyme (Homo sapiens, UniProt P07947); test: Yes1 enzyme inhibitory activity (time-resolved fluorometry, biotinylated peptide phosphorylation); conditions: biotinylated peptide phosphorylation, read-out: YES_IC50
T2 construct: made in house
Method: as §1, with “1. Yes1” for “2. Src”, “Yes1” for “Src”, “prepared using a baculovirus expression system.” for “(manufactured by Carna Biosciences, Inc., cat 08-173).”

human Lck enzyme = target: T3, human Lck enzyme (Homo sapiens, UniProt P06239); test: Lck enzyme inhibitory activity (time-resolved fluorometry, biotinylated peptide phosphorylation); conditions: biotinylated peptide phosphorylation, read-out: LCK_IC50
T3 construct: purchased Carna Biosciences, Inc. 08-170
Method: as §1, with “3. Lck” for “2. Src”, “Lck” for “Src”, “08-170).” for “08-173).”

T1 sequence (P12931 whole entry): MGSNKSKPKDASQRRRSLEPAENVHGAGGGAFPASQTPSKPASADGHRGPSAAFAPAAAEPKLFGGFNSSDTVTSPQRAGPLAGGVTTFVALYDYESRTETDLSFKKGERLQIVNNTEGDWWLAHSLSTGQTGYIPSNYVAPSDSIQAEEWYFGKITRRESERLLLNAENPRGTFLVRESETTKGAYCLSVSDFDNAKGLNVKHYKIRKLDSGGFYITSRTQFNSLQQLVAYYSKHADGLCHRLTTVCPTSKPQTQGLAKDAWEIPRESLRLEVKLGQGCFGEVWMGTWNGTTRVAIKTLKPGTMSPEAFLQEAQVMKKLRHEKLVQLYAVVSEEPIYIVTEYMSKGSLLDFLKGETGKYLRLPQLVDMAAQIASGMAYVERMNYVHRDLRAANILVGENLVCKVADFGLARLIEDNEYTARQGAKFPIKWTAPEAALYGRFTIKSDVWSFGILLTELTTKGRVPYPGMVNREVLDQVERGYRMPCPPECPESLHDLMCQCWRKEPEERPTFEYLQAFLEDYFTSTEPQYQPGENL
T2 sequence (P07947 whole entry): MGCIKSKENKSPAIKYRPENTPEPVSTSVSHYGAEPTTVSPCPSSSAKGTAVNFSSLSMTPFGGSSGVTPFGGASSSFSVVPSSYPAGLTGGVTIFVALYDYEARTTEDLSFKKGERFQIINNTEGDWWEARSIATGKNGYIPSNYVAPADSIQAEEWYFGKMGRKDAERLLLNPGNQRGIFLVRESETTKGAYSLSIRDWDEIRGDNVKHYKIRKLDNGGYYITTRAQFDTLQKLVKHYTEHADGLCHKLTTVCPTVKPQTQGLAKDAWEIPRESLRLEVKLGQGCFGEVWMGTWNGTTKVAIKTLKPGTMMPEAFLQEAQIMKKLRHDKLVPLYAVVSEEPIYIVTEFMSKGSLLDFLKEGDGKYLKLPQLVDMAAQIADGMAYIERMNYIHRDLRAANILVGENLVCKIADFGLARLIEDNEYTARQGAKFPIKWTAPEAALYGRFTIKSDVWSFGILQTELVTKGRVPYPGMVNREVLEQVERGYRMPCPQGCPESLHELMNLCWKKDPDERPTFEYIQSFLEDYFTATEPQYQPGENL
T3 sequence (P06239 whole entry): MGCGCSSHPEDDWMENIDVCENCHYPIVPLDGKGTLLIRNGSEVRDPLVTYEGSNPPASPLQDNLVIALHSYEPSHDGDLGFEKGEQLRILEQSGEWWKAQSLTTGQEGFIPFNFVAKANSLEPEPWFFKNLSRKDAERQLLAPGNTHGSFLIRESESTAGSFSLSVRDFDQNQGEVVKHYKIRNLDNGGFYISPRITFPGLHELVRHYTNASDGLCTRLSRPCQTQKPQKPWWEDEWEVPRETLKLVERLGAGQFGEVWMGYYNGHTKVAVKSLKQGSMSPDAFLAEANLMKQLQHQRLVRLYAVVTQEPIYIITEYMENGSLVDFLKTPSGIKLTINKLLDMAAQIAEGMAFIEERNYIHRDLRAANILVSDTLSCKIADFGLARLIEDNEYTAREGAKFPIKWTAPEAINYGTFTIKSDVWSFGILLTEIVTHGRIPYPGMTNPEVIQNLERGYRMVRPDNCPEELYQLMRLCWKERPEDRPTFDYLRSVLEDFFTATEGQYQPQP

Row | SMILES | IC50 (human Src enzyme) [nM] | IC50 (human Yes1 enzyme) [nM] | IC50 (human Lck enzyme) [nM]
1 | Cc1cc(-n2ncc(C(=O)c3cc4cc(F)c(C5CCN(C(C)C)CC5)cc4[nH]3)c2N)ccc1Oc1ccccc1F [Example 4-2-014, [5-amino-1-[4-(2-fluorophenoxy)-3-methylphenyl]pyrazol-4-yl]-[5-fluoro-6-(1-propan-2-ylpiperidin-4-yl)-1H-indol-2-yl]methanone] | 510 | 18 | 62
2 | Cc1cc(Oc2cccc(F)c2F)ccc1-n1ncc(C(=O)c2cc3cc(F)c(NS(=O)(=O)CCCF)cc3[nH]2)c1N [Example 4-2-016, N-[2-[5-amino-1-[4-(2,3-difluorophenoxy)-2-methylphenyl]pyrazole-4-carbonyl]-5-fluoro-1H-indol-6-yl]-3-fluoropropane-1-sulfonamide] | 70 | 2.1 | 19
3 | Cc1cc(Oc2ccccc2F)cc(F)c1-n1ncc(C(=O)c2cc3cc(F)c(NS(=O)(=O)CCCF)cc3[nH]2)c1N [Example 4-2-019, N-[2-[5-amino-1-[2-fluoro-4-(2-fluorophenoxy)-6-methylphenyl]pyrazole-4-carbonyl]-5-fluoro-1H-indol-6-yl]-3-fluoropropane-1-sulfonamide] | 72 | 5.3 | 40
4 | Cc1cc(Oc2cccc(F)c2F)ncc1-n1ncc(C(=O)c2cc3cc(F)c(NS(=O)(=O)CCCF)cc3[nH]2)c1N [Example 4-2-022, N-[2-[5-amino-1-[6-(2,3-difluorophenoxy)-4-methylpyridin-3-yl]pyrazole-4-carbonyl]-5-fluoro-1H-indol-6-yl]-3-fluoropropane-1-sulfonamide] | 140 | 5.4 | 26
5 | Cc1cc(Oc2ccccc2Cl)ncc1-n1ncc(C(=O)c2cc3cc(F)c(NS(=O)(=O)CCCF)cc3[nH]2)c1N [Example 4-2-023, N-[2-[5-amino-1-[6-(2-chlorophenoxy)-4-methylpyridin-3-yl]pyrazole-4-carbonyl]-5-fluoro-1H-indol-6-yl]-3-fluoropropane-1-sulfonamide] | 84 | 1.7 | 47
6 | Cc1cc(Oc2c(F)cccc2Cl)ncc1-n1ncc(C(=O)c2cc3cc(F)c(NS(=O)(=O)CCCF)cc3[nH]2)c1N [Example 4-2-024, N-[2-[5-amino-1-[6-(2-chloro-6-fluorophenoxy)-4-methylpyridin-3-yl]pyrazole-4-carbonyl]-5-fluoro-1H-indol-6-yl]-3-fluoropropane-1-sulfonamide] | 60 | 2.1 | 12
7 | Cc1cc(Oc2cccc(Cl)c2)ncc1-n1ncc(C(=O)c2cc3cc(F)c(NS(=O)(=O)CCCF)cc3[nH]2)c1N [Example 4-2-026, N-[2-[5-amino-1-[6-(3-chlorophenoxy)-4-methylpyridin-3-yl]pyrazole-4-carbonyl]-5-fluoro-1H-indol-6-yl]-3-fluoropropane-1-sulfonamide] | 120 | 3.6 | 37
8 | Cc1cc(Oc2ccc(F)cc2)ncc1-n1ncc(C(=O)c2cc3cc(F)c(NS(=O)(=O)CCCF)cc3[nH]2)c1N [Example 4-2-027, N-[2-[5-amino-1-[6-(4-fluorophenoxy)-4-methylpyridin-3-yl]pyrazole-4-carbonyl]-5-fluoro-1H-indol-6-yl]-3-fluoropropane-1-sulfonamide] | 95 | 10 | 30
9 | Cc1cc(Oc2cc(F)cc(F)c2)ncc1-n1ncc(C(=O)c2cc3cc(F)c(NS(=O)(=O)CCCF)cc3[nH]2)c1N [Example 4-2-028, N-[2-[5-amino-1-[6-(3,5-difluorophenoxy)-4-methylpyridin-3-yl]pyrazole-4-carbonyl]-5-fluoro-1H-indol-6-yl]-3-fluoropropane-1-sulfonamide] | 340 | 15 | 120

Results, then the compound that gave them:

Row | IC50 (human Src enzyme) [nM] | IC50 (human Yes1 enzyme) [nM] | IC50 (human Lck enzyme) [nM] | SMILES
10 | 5.1 | 0.81 | 3.4 | CC(C)N1CCC(c2cc3cc(C(=O)c4cnn(-c5ccc(Oc6ccccc6F)cc5F)c4N)[nH]c3cc2F)CC1 [Example 4-2-009, [5-amino-1-[2-fluoro-4-(2-fluorophenoxy)phenyl]pyrazol-4-yl]-[6-fluoro-5-(1-propan-2-ylpiperidin-4-yl)-1H-indol-2-yl]methanone]
11 | 4.7 | 1.2 | 1.9 | Cc1cc(Oc2ccccc2F)ccc1-n1ncc(C(=O)c2cc3cc(F)c(C4CCN(C(C)C)CC4)cc3[nH]2)c1N [Example 4-2-010, [5-amino-1-[4-(2-fluorophenoxy)-2-methylphenyl]pyrazol-4-yl]-[5-fluoro-6-(1-propan-2-ylpiperidin-4-yl)-1H-indol-2-yl]methanone]
12 | 11 | 2.2 | 2.7 | Cc1cc(Oc2cccc(F)c2F)ccc1-n1ncc(C(=O)c2cc3cc(F)c(C4CCN(C(C)C)CC4)cc3[nH]2)c1N [Example 4-2-011, [5-amino-1-[4-(2,3-difluorophenoxy)-2-methylphenyl]pyrazol-4-yl][5-fluoro-6-(1-propan-2-ylpiperidin-4-yl)-1H-indol-2-yl]methanone]
13 | 9.4 | 2.2 | 4.9 | Cc1cc(Oc2ccccc2Cl)ccc1-n1ncc(C(=O)c2cc3cc(F)c(C4CCN(C(C)C)CC4)cc3[nH]2)c1N [Example 4-2-012, [5-amino-1-[4-(2-chlorophenoxy)-2-methylphenyl]pyrazol-4-yl]-[5-fluoro-6-(1-propan-2-ylpiperidin-4-yl)-1H-indol-2-yl]methanone]
14 | 49 | 1.1 | 9.7 | Cc1cc(Oc2cccc(Cl)c2)ccc1-n1ncc(C(=O)c2cc3cc(F)c(C4CCN(C(C)C)CC4)cc3[nH]2)c1N [Example 4-2-013, [5-amino-1-[4-(3-chlorophenoxy)-2-methylphenyl]pyrazol-4-yl]-[5-fluoro-6-(1-propan-2-ylpiperidin-4-yl)-1H-indol-2-yl]methanone]
15 | 19 | 0.67 | 10 | Cc1cc(Oc2ccccc2F)ccc1-n1ncc(C(=O)c2cc3cc(F)c(NS(=O)(=O)CCCF)cc3[nH]2)c1N [Example 4-2-015, N-[2-[5-amino-1-[4-(2-fluorophenoxy)-2-methylphenyl]pyrazole-4-carbonyl]-5-fluoro-1H-indol-6-yl]-3-fluoropropane-1-sulfonamide]
16 | 26 | 0.55 | 17 | Cc1cc(Oc2ccccn2)ccc1-n1ncc(C(=O)c2cc3cc(F)c(NS(=O)(=O)CCCF)cc3[nH]2)c1N [Example 4-2-017, N-[2-[5-amino-1-(2-methyl-4-pyridin-2-yloxyphenyl)pyrazole-4-carbonyl]-5-fluoro-1H-indol-6-yl]-3-fluoropropane-1-sulfonamide]
17 | 22 | 0.52 | 15 | Nc1c(C(=O)c2cc3cc(F)c(NS(=O)(=O)CCCF)cc3[nH]2)cnn1-c1ccc(Oc2ccccn2)cc1Cl [Example 4-2-018, N-[2-[5-amino-1-(2-chloro-4-pyridin-2-yloxyphenyl)pyrazole-4-carbonyl]-5-fluoro-1H-indol-6-yl]-3-fluoropropane-1-sulfonamide]
18 | 59 | 2 | 11 | Cc1cc(Oc2ccccc2F)ncc1-n1ncc(C(=O)c2cc3cc(F)c(NS(=O)(=O)CCCF)cc3[nH]2)c1N [Example 4-2-020, N-[2-[5-amino-1-[6-(2-fluorophenoxy)-4-methylpyridin-3-yl]pyrazole-4-carbonyl]-5-fluoro-1H-indol-6-yl]-3-fluoropropane-1-sulfonamide]
19 | 43 | 1.5 | 8.6 | Cc1cc(Oc2c(F)cccc2F)ncc1-n1ncc(C(=O)c2cc3cc(F)c(NS(=O)(=O)CCCF)cc3[nH]2)c1N [Example 4-2-021, N-[2-[5-amino-1-[6-(2,6-difluorophenoxy)-4-methylpyridin-3-yl]pyrazole-4-carbonyl]-5-fluoro-1H-indol-6-yl]-3-fluoropropane-1-sulfonamide]
20 | 52 | 2.4 | 35 | Cc1ccccc1Oc1cc(C)c(-n2ncc(C(=O)c3cc4cc(F)c(NS(=O)(=O)CCCF)cc4[nH]3)c2N)cn1 [Example 4-2-025, N-[2-[5-amino-1-[4-methyl-6-(2-methylphenoxy)pyridin-3-yl]pyrazole-4-carbonyl]-5-fluoro-1H-indol-6-yl]-3-fluoropropane-1-sulfonamide]
21 | 28 | 0.64 | 5.5 | Cc1cc(Oc2cccc(F)c2F)ccc1-n1ncc(C(=O)c2cc3cc(F)c(NS(C)(=O)=O)cc3[nH]2)c1N [Example 4-2-029, N-[2-[5-amino-1-[4-(2,3-difluorophenoxy)-2-methylphenyl]pyrazole-4-carbonyl]-5-fluoro-1H-indol-6-yl]methanesulfonamide]
